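All cell lines were grown in 96-well plates and treated with compound for 48 hours. Abbreviation: GI50, concentration required for 50% inhibition of growth. TGI marks complete inhibition of growth.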
What was measured:
Assay in all cases: growth of human tumour cells (NCI), 48 h
PC-3 prostate = test system: PC-3 prostate
786-0 renal = test system: 786-0 renal
SR leukemia = test system: SR leukemia
IGROV1 ovarian = test system: IGROV1 ovarian
A549 NSCLC = test system: A549 NSCLC
HOP-62 NSCLC = test system: HOP-62 NSCLC
LOX IMVI melanoma = test system: LOX IMVI melanoma
SW-620 colon = test system: SW-620 colon
HCT-116 colon = test system: HCT-116 colon
HS 578T breast = test system: HS 578T breast
NCI/ADR-RES ovarian = test system: NCI/ADR-RES ovarian
SF-295 CNS = test system: SF-295 CNS
CCRF-CEM leukemia = test system: CCRF-CEM leukemia
MCF7 breast = test system: MCF7 breast
M14 melanoma = test system: M14 melanoma
UACC-257 melanoma = test system: UACC-257 melanoma
DU-145 prostate = test system: DU-145 prostate
NCI-H460 lung = test system: NCI-H460 lung
A498 renal = test system: A498 renal
HL-60(TB) leukemia = test system: HL-60(TB) leukemia
HOP-92 NSCLC = test system: HOP-92 NSCLC
SF-268 CNS = test system: SF-268 CNS
OVCAR-5 ovarian = test system: OVCAR-5 ovarian
OVCAR-4 ovarian = test system: OVCAR-4 ovarian
TK-10 renal = test system: TK-10 renal
RXF 393 renal = test system: RXF 393 renal
CAKI-1 renal = test system: CAKI-1 renal
SK-MEL-2 melanoma = test system: SK-MEL-2 melanoma
SNB-19 CNS = test system: SNB-19 CNS
MDA-MB-231 breast = test system: MDA-MB-231 breast
EKVX NSCLC = test system: EKVX NSCLC
HCC-2998 colon = test system: HCC-2998 colon
KM12 colon = test system: KM12 colon
OVCAR-3 ovarian = test system: OVCAR-3 ovarian
MOLT-4 leukemia = test system: MOLT-4 leukemia
T-47D breast = test system: T-47D breast
SF-539 CNS = test system: SF-539 CNS
UO-31 renal = test system: UO-31 renal
SK-MEL-28 melanoma = test system: SK-MEL-28 melanoma
UACC-62 melanoma = test system: UACC-62 melanoma
NCI-H522 lung = test system: NCI-H522 lung
HCT-15 colon = test system: HCT-15 colon
NCI-H23 lung = test system: NCI-H23 lung
K-562 leukemia = test system: K-562 leukemia
COLO 205 colon = test system: COLO 205 colon
SN12C renal = test system: SN12C renal
BT-549 breast = test system: BT-549 breast
RPMI-8226 leukemia = test system: RPMI-8226 leukemia
ACHN renal = test system: ACHN renal
OVCAR-8 ovarian = test system: OVCAR-8 ovarian
NCI-H226 lung = test system: NCI-H226 lung
MDA-MB-435 = test system: MDA-MB-435
HT29 colon = test system: HT29 colon
SNB-75 CNS = test system: SNB-75 CNS
SK-MEL-5 melanoma = test system: SK-MEL-5 melanoma

Compound `CC(=O)OC1CC2C(C)(C)C(=O)C=C[C@]2(C)C2CC[C@]3(C)C(OCC(=O)[C@H]3c3ccoc3)[C@]12C` (stereo not given in full) has a GI50 (PC-3 prostate) of 3.88 µM, a TGI (PC-3 prostate) of 17.1 µM and a GI50 (786-0 renal) of 4.66 µM. The TGI (786-0 renal) was 21.7 µM, the GI50 (SR leukemia) was 2.27 µM and the TGI (SR leukemia) was 14.5 µM. For the same compound, the GI50 (IGROV1 ovarian) was 7.83 µM, the TGI (IGROV1 ovarian) was 34.9 µM and the GI50 (A549 NSCLC) was 6.28 µM. For the same compound, the TGI (A549 NSCLC) was 23.1 µM, the GI50 (HOP-62 NSCLC) was 8.29 µM and the TGI (HOP-62 NSCLC) was 21.6 µM. It also gave a GI50 (LOX IMVI melanoma) of 3.94 µM, a TGI (LOX IMVI melanoma) of 14.9 µM and a GI50 (SW-620 colon) of 11.1 µM. For the same compound, the TGI (SW-620 colon) was 39.3 µM, the GI50 (HCT-116 colon) was 3.42 µM and the TGI (HCT-116 colon) was 11.4 µM. For the same compound, the GI50 (HS 578T breast) was 19.4 µM, the TGI (HS 578T breast) was over 100 µM and the GI50 (NCI/ADR-RES ovarian) was 5.07 µM. For the same compound, the TGI (NCI/ADR-RES ovarian) was 22.9 µM, the GI50 (SF-295 CNS) was 16.5 µM and the TGI (SF-295 CNS) was 48.6 µM. For the same compound, the GI50 (CCRF-CEM leukemia) was 4.06 µM, the TGI (CCRF-CEM leukemia) was 16.3 µM and the GI50 (MCF7 breast) was 6.6 µM. It also gave a TGI (MCF7 breast) of 35.7 µM, a GI50 (M14 melanoma) of 12.4 µM and a TGI (M14 melanoma) of 27.3 µM. The GI50 (UACC-257 melanoma) was 2.51 µM, the TGI (UACC-257 melanoma) was 15 µM and the GI50 (DU-145 prostate) was 3.89 µM. It also gave a TGI (DU-145 prostate) of 19.8 µM, a GI50 (NCI-H460 lung) of 3.93 µM and a TGI (NCI-H460 lung) of 15.2 µM. The GI50 (A498 renal) was 12.7 µM, the TGI (A498 renal) was 29.7 µM and the GI50 (HL-60(TB) leukemia) was 3.11 µM. The TGI (HL-60(TB) leukemia) was 17.8 µM, the GI50 (HOP-92 NSCLC) was 10.7 µM and the TGI (HOP-92 NSCLC) was 35.5 µM. The GI50 (SF-268 CNS) was 2.82 µM, the TGI (SF-268 CNS) was 10.5 µM and the GI50 (OVCAR-5 ovarian) was 23.9 µM. It also gave a TGI (OVCAR-5 ovarian) of 46.2 µM, a GI50 (OVCAR-4 ovarian) of 4.2 µM and a TGI (OVCAR-4 ovarian) of 17.2 µM. For the same compound, the GI50 (TK-10 renal) was 10.4 µM, the TGI (TK-10 renal) was 35.7 µM and the GI50 (RXF 393 renal) was 4.43 µM. It also gave a TGI (RXF 393 renal) of 18.8 µM, a GI50 (CAKI-1 renal) of 3.58 µM and a TGI (CAKI-1 renal) of 23.9 µM. The GI50 (SK-MEL-2 melanoma) was 13.8 µM, the TGI (SK-MEL-2 melanoma) was 42.3 µM and the GI50 (SNB-19 CNS) was 6.53 µM. It also gave a TGI (SNB-19 CNS) of 21.2 µM, a GI50 (MDA-MB-231 breast) of 8.99 µM and a TGI (MDA-MB-231 breast) of 29.4 µM. The GI50 (EKVX NSCLC) was 18 µM, the TGI (EKVX NSCLC) was over 100 µM and the GI50 (HCC-2998 colon) was 11.3 µM. For the same compound, the TGI (HCC-2998 colon) was 24.7 µM, the GI50 (KM12 colon) was 3.77 µM and the TGI (KM12 colon) was 12.3 µM. The GI50 (OVCAR-3 ovarian) was 5.56 µM, the TGI (OVCAR-3 ovarian) was 22.9 µM and the GI50 (MOLT-4 leukemia) was 3.62 µM. For the same compound, the TGI (MOLT-4 leukemia) was 22.1 µM, the GI50 (T-47D breast) was 2.97 µM and the TGI (T-47D breast) was 15.4 µM. For the same compound, the GI50 (SF-539 CNS) was 15.2 µM, the TGI (SF-539 CNS) was 31.3 µM and the GI50 (UO-31 renal) was 10.1 µM. For the same compound, the TGI (UO-31 renal) was 22.6 µM, the GI50 (SK-MEL-28 melanoma) was 4.63 µM and the TGI (SK-MEL-28 melanoma) was 18.5 µM. It also gave a GI50 (UACC-62 melanoma) of 5.89 µM, a TGI (UACC-62 melanoma) of 21.7 µM and a GI50 (NCI-H522 lung) of 3.15 µM. For the same compound, the TGI (NCI-H522 lung) was 10.1 µM, the GI50 (HCT-15 colon) was 4.19 µM and the TGI (HCT-15 colon) was 15.8 µM. For the same compound, the GI50 (NCI-H23 lung) was 8.66 µM, the TGI (NCI-H23 lung) was 26.5 µM and the GI50 (K-562 leukemia) was 2.25 µM. It also gave a TGI (K-562 leukemia) of 7.04 µM, a GI50 (COLO 205 colon) of 1.91 µM and a TGI (COLO 205 colon) of 8.48 µM. The GI50 (SN12C renal) was 8.64 µM, the TGI (SN12C renal) was 28.6 µM and the GI50 (BT-549 breast) was 8.63 µM. The TGI (BT-549 breast) was 57.8 µM, the GI50 (RPMI-8226 leukemia) was 2.46 µM and the TGI (RPMI-8226 leukemia) was 6.8 µM. The GI50 (ACHN renal) was 13.4 µM, the TGI (ACHN renal) was 31.4 µM and the GI50 (OVCAR-8 ovarian) was 8.3 µM. It also gave a TGI (OVCAR-8 ovarian) of 27.6 µM, a GI50 (NCI-H226 lung) of 11.8 µM and a TGI (NCI-H226 lung) of 31.4 µM. For the same compound, the GI50 (MDA-MB-435) was 2.53 µM, the TGI (MDA-MB-435) was 8.58 µM and the GI50 (HT29 colon) was 2.76 µM. It also gave a TGI (HT29 colon) of 11.6 µM, a GI50 (SNB-75 CNS) of 4.68 µM and a TGI (SNB-75 CNS) of 17.1 µM. The GI50 (SK-MEL-5 melanoma) was 11.5 µM and the TGI (SK-MEL-5 melanoma) was 28 µM.
